Results reported in patent US9283280B2, “Compositions for drug administration” (Aegis Therapeutics, LLC, priority 2008, dated 2016).
Values belong to the compound of their own block, whether it stands above or below them.

What was measured:
[1] = Naratriptan sublingual spray two-way crossover study in patients; format: in vivo; conditions: in the presence of 0.18-0.2% alkylsaccharide (dodecylmaltoside)
Description: Manufacturing process: Naratriptan hydrochloride salt is dissolved in water and required quantity of polyethylene glycol or ethanol is added. The alkyl glycoside, flavors, aspartame are next dissolved in the solution. Final adjustment of volume is made with water. The sublingual formulation with and without dodecylmaltoside alkylsaccharide is administered using a metered spray pump to 20 patients in a two way, two period cross over study.

[2] = cited from earlier work
[3] = system: human nasal epithelium; conditions: in vivo
[4] = system: blood D-glucose; test: Insulin eye drops with absorption enhancer in xylazine/ketamine-anesthetized hyperglycemic rats, blood D-glucose; format: in vivo, rat; conditions: for Blood Glucose: before eye drops
[5] = Intranasal triptans with alkylsaccharide in rats, plasma levels by HPLC; format: in vivo;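 further: rats in groups of eight given 20 µL into one nostril, dose expressed as triptan free base, Cmax and Tmax read from plasma concentration–time curves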
[6] = system: Escherichia coli (ATCC No. 8739); test: Antimicrobial activity of alkylglycoside solutions, plate count log reduction; format: cell-based; conditions: 0.2%, BSA; growth from initial count
From the text: (§1) 20110-2209. The viable microorganisms used in the invention were not more than five passages removed from the original ATCC culture. As described herein, one passage is defined as the transfer of organisms from an established culture to fresh medium and all transfers are counted.
(§2) Cultures received from the ATCC are resuscitated according to the directions provided by the ATTC. Cells grown in broth were pelleted by centrifugation, resuspended in 1/20th the volume of fresh maintenance broth, and combined with an equal volume of 20% (v/v in water) sterile glycerol. Cells grown on agar were scraped from the surface into the maintenance broth also containing 10% glycerol broth. Small aliquots of the suspension were dispensed into sterile vials and the vials were stored in liquid nitrogen or in a mechanical freezer at a temperature no higher than about −50° C. When a fresh seed-stock vial was required, it was removed and used to inoculate a series of working stock cultures. These working stock cultures were then used periodically (each day in the case of bacteria and yeast) to start the inoculum culture.
(§3) The culture conditions for the inoculum culture is substantially as described in Table IV. For example, suitable media can include but is not limited to, Soybean-Casein Digest or Sabouraud Dextrose Agar Medium. […]
(§4) The suspension should be refrigerated if it is not used within 2 hours. To confirm the initial cfu per mL estimate, the number of cfu per mL in each suspension was determined using the conditions of media and microbial recovery incubation times listed in Table IV (e.g., from about 3 to about 7 days). This value serves to calibrate the size of inoculum used in the test. The bacterial and yeast suspensions were used within 24 hours of harvest; whereas the fungal preparation can be stored under refrigeration for up to 7 days.
(§5) To determine which alkylglycoside formulations have antibacterial activity, the formulations were prepared in phosphate buffered saline (PBS) at pH 7. As a source of nutrition, either 1.5 mg/mL bovine serum albumin (BSA; see Tables V and VI) or 1 mg/mL of PYY was added (see Table VII) to the medium. BSA (CAS Number: 9048-46-8) was obtained from Sigma-Aldrich, St. Louis, Mo., USA, n-dodecyl-4-O-α-D-glucopyranosyl-β-D-glucopyranoside and n-tetradecyl-4-O-α-D-glucopyranosyl-β-D-glucopyranoside were obtained from Anatrace Inc., Maumee, Ohio, USA, and PYY was obtained from Bachem California Inc., Torrance, Calif., USA.
(§6) Antibacterial activity of the alkylglycosides were conducted in four sterile, capped bacteriological containers of suitable size into which a sufficient volume of alkylglycoside solution had been transferred. Each container was inoculated with one of the prepared and standardized inoculums and mixed. The volume of the suspension inoculum was between about 0.5% and about 1.0% of the volume of the alkylglycoside solution. […]. To determine the level of inhibition of growth, or reduction of growth based on a logarithmic scale, the initial concentration of viable microorganisms in each test preparation was estimated based on the concentration of microorganisms in each of the standardized inoculum as determined by the plate-count method. The inoculated containers were then incubated at about 22.5° C.±2.5. The growth or non-growth of the microorganisms in each culture/container were again determined at day 14 and day 28. The number of cfu present in each calculation was determined by the plate-count procedure standard in the art for the applicable intervals. The change in the orders of magnitude of bacterium and/or fungi was then determined by subtracting the first calculated log 10 values of the concentrations of cfu per mL present at the start or beginning (e.g., day 0), from the log 10 values of the concentration of cfu per mL for each microorganism at the applicable test intervals (e.g., day 14 and day 28; see Tables V, VI and VII).

[7] = system: Aspergillus niger (ATCC No. 16404); test: as above; format: cell-based; conditions: 0.2%, BSA
From the text: as §1, §2, §3, §4, §5, §6

[8] = system: Candida albicans (ATCC No. 10231); test: as above; format: cell-based; conditions: 0.2%, BSA
From the text: as §1, §2, §3, §4, §5, §6

[9] = system: Staphylococcus aureus (ATCC No. 6538); test: as above; format: cell-based; conditions: 0.2%, BSA
From the text: as §1, §2, §3, §4, §5, §6

[10] = system: blood D-glucose; test: Insulin nose drops with tetradecylmaltoside in rats, blood glucose; format: in vivo, rat; conditions: nose drop, same insulin concentration with 0.5% tetradecylmaltoside
From the text: Tetradecylmaltoside (TDM) in combination with insulin also produced a drop in blood D-glucose levels when administered in the form of a drop intranasally as well as via a drop by the ocular route. […] Thus, intranasal delivery and administration of the alkyl saccharide with drug results in lowering of blood glucose levels.

[11] = Naratriptan 0.22 mg/kg intranasal, alkylsaccharide 0.02%
[12] = Naratriptan 0.22 mg/kg intranasal, alkylsaccharide 0.05%
[13] = Naratriptan 0.22 mg/kg intranasal, alkylsaccharide 0.1%
[14] = Naratriptan 0.22 mg/kg intranasal, alkylsaccharide 0.5%
[15] = Naratriptan 0.22 mg/kg intranasal, alkylsaccharide 2%
[16] = Sumatriptan 6.2 mg/kg intranasal, alkylsaccharide 0.02%
[17] = Sumatriptan 6.2 mg/kg intranasal, alkylsaccharide 0.05%
[18] = Sumatriptan 6.2 mg/kg intranasal, alkylsaccharide 0.1%
[19] = Sumatriptan 6.2 mg/kg intranasal, alkylsaccharide 0.5%
[20] = Sumatriptan 6.2 mg/kg intranasal, alkylsaccharide 2%

bioavailability across the sublingual mucosal membranes [1]: little increase
SMILES: CNS(=O)(=O)CCc1ccc2[nH]cc(C3CCN(C)CC3)c2c1 [naratriptan]

SMILES: O=C(c1ccc(OCCN2CCCCC2)cc1)c1c(-c2ccc(O)cc2)sc2cc(O)ccc12 [raloxifene]
water solubility [2]: approx. 0.25 mg/L

SMILES: CCCCCCCCCCCCCCO[C@@H]1O[C@H](CO)[C@@H](O[C@H]2O[C@H](CO)[C@@H](O)[C@H](O)[C@H]2O)[C@H](O)[C@H]1O [tetradecyl maltoside, n-tetradecyl-4-O-α-D-glucopyranosyl-β-D-glucopyranoside]
irritation of the nasal mucosa [3]: no observable irritation
hypoglycemic effect / insulin absorption enhancement ([4]; eye drops 0.2% insulin + 0.5% enhancer): effective
hypoglycemic effect / insulin absorption enhancement ([4]; eye drops 0.2% insulin + […] enhancer): effective
effect on blood glucose levels ([4]; eye drops 0.2% regular porcine insulin with […] tetradecylmaltoside): prompt and prominent drop in blood glucose levels
Blood Glucose ([4]; time −10 min): 311 mg/dL
Blood Glucose ([4]; time −20 min): 319 mg/dL
Ratio Cmax(alkylsacch)/Cmax(No alkylsacch) [5, 11]: ≦1.5
Tmax [5, 11]: ~60 min
Ratio Cmax(alkylsacch)/Cmax(No alkylsacch) [5, 12]: ≧1.5
Tmax [5, 12]: ~5 to 15 min
Ratio Cmax(alkylsacch)/Cmax(No alkylsacch) [5, 13]: ≧1.5
Tmax [5, 13]: ~5 to 15 min
Ratio Cmax(alkylsacch)/Cmax(No alkylsacch) [5, 14]: ≧1.5
Tmax [5, 14]: ~5 to 15 min
Ratio Cmax(alkylsacch)/Cmax(No alkylsacch) [5, 15]: ≧1.5
Tmax [5, 15]: ~5 to 15 min
Tmax ([5]; Rizatriptan […] intranasal, alkylsaccharide 0.02%): ~60 min
Tmax ([5]; Rizatriptan […] intranasal, alkylsaccharide 0.05%): ~5 to 15 min
Tmax ([5]; Rizatriptan […] intranasal, alkylsaccharide 0.1%): ~5 to 15 min
Tmax ([5]; Rizatriptan […] intranasal, alkylsaccharide 0.5%): ~5 to 15 min
Tmax ([5]; Rizatriptan […] intranasal, alkylsaccharide 2%): ~5 to 15 min
Ratio Cmax(alkylsacch)/Cmax(No alkylsacch) [5, 16]: ≦1.5
Tmax [5, 16]: ~60 min
Ratio Cmax(alkylsacch)/Cmax(No alkylsacch) [5, 17]: ≧1.5
Tmax [5, 17]: ~5 to 15 min
Ratio Cmax(alkylsacch)/Cmax(No alkylsacch) [5, 18]: ≧1.5
Tmax [5, 18]: ~5 to 15 min
Ratio Cmax(alkylsacch)/Cmax(No alkylsacch) [5, 19]: ≧1.5
Tmax [5, 19]: ~5 to 15 min
Ratio Cmax(alkylsacch)/Cmax(No alkylsacch) [5, 20]: ≧1.5
Tmax [5, 20]: ~5 to 15 min
Log Reductions, Day 28 [6]: No growth
Log Reductions, Day 14 [7]: 0.5 orders of orders of magnitude reduction
Log Reductions, Day 28 ([7]; growth from initial count): No growth
Log Reductions, Day 14 [8]: 3.0 orders of orders of magnitude reduction
Log Reductions, Day 28 [8]: ≧5.4 orders of orders of magnitude reduction
Log Reductions, Day 14 [9]: ≧5 orders of orders of magnitude reduction
Log Reductions, Day 28 [9]: ≧5 orders of orders of magnitude reduction
effect on blood glucose levels [10]: decrease even more
